In PubChem BioAssay (NCI):
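Interpolation was linear, between the two tested concentrations surrounding the appropriate level; five concentrations were tested over 48 hours in 96-well plates. At the TGI there is no net growth.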

How the values were obtained:
Experiment in all cases: NCI anticancer screen, dose series, 48 h
HOP-62 NSCLC = system: HOP-62 NSCLC
SK-MEL-2 melanoma = system: SK-MEL-2 melanoma
NCI-H226 lung = system: NCI-H226 lung
CCRF-CEM leukemia = system: CCRF-CEM leukemia
HL-60(TB) leukemia = system: HL-60(TB) leukemia
MDA-N = system: MDA-N
SK-OV-3 ovarian = system: SK-OV-3 ovarian
M14 melanoma = system: M14 melanoma
SR leukemia = system: SR leukemia
HCT-15 colon = system: HCT-15 colon
COLO 205 colon = system: COLO 205 colon
DU-145 prostate = system: DU-145 prostate
HCT-116 colon = system: HCT-116 colon
MOLT-4 leukemia = system: MOLT-4 leukemia
T-47D breast = system: T-47D breast
MALME-3M melanoma = system: MALME-3M melanoma
SK-MEL-5 melanoma = system: SK-MEL-5 melanoma
OVCAR-8 ovarian = system: OVCAR-8 ovarian
SW-620 colon = system: SW-620 colon
OVCAR-5 ovarian = system: OVCAR-5 ovarian
NCI-H522 lung = system: NCI-H522 lung
SK-MEL-28 melanoma = system: SK-MEL-28 melanoma
BT-549 breast = system: BT-549 breast
TK-10 renal = system: TK-10 renal
MDA-MB-435 = system: MDA-MB-435
A549 NSCLC = system: A549 NSCLC
NCI-H23 lung = system: NCI-H23 lung
ACHN renal = system: ACHN renal
LOX IMVI melanoma = system: LOX IMVI melanoma
CAKI-1 renal = system: CAKI-1 renal
RXF 393 renal = system: RXF 393 renal
SF-295 CNS = system: SF-295 CNS
OVCAR-4 ovarian = system: OVCAR-4 ovarian
SF-539 CNS = system: SF-539 CNS
NCI/ADR-RES ovarian = system: NCI/ADR-RES ovarian
MCF7 breast = system: MCF7 breast
786-0 renal = system: 786-0 renal
HT29 colon = system: HT29 colon
SN12C renal = system: SN12C renal
U251 CNS = system: U251 CNS
SNB-19 CNS = system: SNB-19 CNS
EKVX NSCLC = system: EKVX NSCLC
SF-268 CNS = system: SF-268 CNS
UACC-62 melanoma = system: UACC-62 melanoma
MDA-MB-231 breast = system: MDA-MB-231 breast
KM12 colon = system: KM12 colon
A498 renal = system: A498 renal
UACC-257 melanoma = system: UACC-257 melanoma
SNB-75 CNS = system: SNB-75 CNS
HS 578T breast = system: HS 578T breast
NCI-H460 lung = system: NCI-H460 lung
UO-31 renal = system: UO-31 renal
HCC-2998 colon = system: HCC-2998 colon
OVCAR-3 ovarian = system: OVCAR-3 ovarian
RPMI-8226 leukemia = system: RPMI-8226 leukemia
K-562 leukemia = system: K-562 leukemia
IGROV1 ovarian = system: IGROV1 ovarian
PC-3 prostate = system: PC-3 prostate
HOP-92 NSCLC = system: HOP-92 NSCLC

Measured: TGI

NNC(=O)CCSc1ccccc1
> 100 µM: HOP-62 NSCLC | SK-MEL-2 melanoma | NCI-H226 lung | CCRF-CEM leukemia | HL-60(TB) leukemia | MDA-N | SK-OV-3 ovarian | M14 melanoma | SR leukemia | HCT-15 colon | COLO 205 colon | DU-145 prostate | HCT-116 colon | MOLT-4 leukemia | T-47D breast | MALME-3M melanoma | SK-MEL-5 melanoma | OVCAR-8 ovarian | SW-620 colon | OVCAR-5 ovarian | NCI-H522 lung | SK-MEL-28 melanoma | BT-549 breast | TK-10 renal | MDA-MB-435 | A549 NSCLC | NCI-H23 lung | ACHN renal | LOX IMVI melanoma | CAKI-1 renal | RXF 393 renal | SF-295 CNS | OVCAR-4 ovarian | SF-539 CNS | NCI/ADR-RES ovarian | MCF7 breast | 786-0 renal | HT29 colon | SN12C renal | U251 CNS | SNB-19 CNS | EKVX NSCLC | SF-268 CNS | UACC-62 melanoma | MDA-MB-231 breast | KM12 colon | A498 renal | UACC-257 melanoma | SNB-75 CNS | HS 578T breast | NCI-H460 lung | UO-31 renal | HCC-2998 colon | OVCAR-3 ovarian | RPMI-8226 leukemia | K-562 leukemia | IGROV1 ovarian | PC-3 prostate

N#Cc1ccc(N2CCOCC2)cc1
> 100 µM: HOP-62 NSCLC | SK-MEL-2 melanoma | CCRF-CEM leukemia | HL-60(TB) leukemia | MDA-N | SK-OV-3 ovarian | M14 melanoma | HCT-15 colon | COLO 205 colon | DU-145 prostate | HCT-116 colon | MOLT-4 leukemia | T-47D breast | SK-MEL-5 melanoma | OVCAR-8 ovarian | SW-620 colon | OVCAR-5 ovarian | NCI-H522 lung | SK-MEL-28 melanoma | BT-549 breast | TK-10 renal | MDA-MB-435 | A549 NSCLC | NCI-H23 lung | ACHN renal | LOX IMVI melanoma | CAKI-1 renal | RXF 393 renal | SF-295 CNS | OVCAR-4 ovarian | SF-539 CNS | NCI/ADR-RES ovarian | MCF7 breast | 786-0 renal | HT29 colon | SN12C renal | U251 CNS | SNB-19 CNS | EKVX NSCLC | SF-268 CNS | UACC-62 melanoma | MDA-MB-231 breast | KM12 colon | A498 renal | HOP-92 NSCLC | UACC-257 melanoma | SNB-75 CNS | HS 578T breast | NCI-H460 lung | UO-31 renal | OVCAR-3 ovarian | IGROV1 ovarian | PC-3 prostate
